Biological target: T1, GluN1-L135H/GluN2B (UniProt P35439+Q01097, L135H)
T1 construct: expressed in transfected cells; host or cells: Xenopus laevis oocytes (nuclear cDNA injection)
Experiment: TEVC on Xenopus oocytes, ifenprodil site mutant
Type: cell-based, rat GluN1, mouse GluN2B
Conditions: 1 µM trans-OptoNAM-3 (dark)
Description: We finally investigated the location of the OptoNAM-3 binding-site on the receptor. […] The binding site for GluN2B-selective antagonists at the GluN1/GluN2B NTD dimer interface contains two partially overlapping pockets that accommodate GluN2B-selective NAMs of distinct chemical scaffolds:[19] either scaffolds related to ifenprodil or scaffolds related to another GluN2B-selective NAM called EVT-101.[47]
We used cDNA coding for rat GluN1–1a (named GluN1 herein) (GenBank: U08261.1), rat GluN2A (GenBank: D13211.1), mouse GluN2B (GenBank: D10651.2), rat GluA1 flop (GenBank: M36418.2), and rat Myc-GluA2(Q)-flip (GenBank: AF164344.1) cloned into pcDNA3-based expression plasmids. GluK2 (GenBank: Z11548.1) corresponds to the fully RNA-edited version.[80] The GluN2B-ΔNTD construct is from ref[45] and GluN2B–N615K is from ref[81]. Single mutants GluN2B-Q110G and GluN1-L135H were from ref[19]. The GluA2 cDNA contains a Myc tag ([…]) fused between the signal peptide and the N-terminus sequences, and the GluA2 subunit is […] for its Q/R/N site (GluA2(Q)) to allow permeation of homomeric GluA2 receptors.[2] cDNAs coding for rat GluN2C (GenBank: M91563.1) and GluN2D subunits (GenBank: L31611.1) were in prK5 plasmids. […]

T1 sequence (Q01097 27-1482, other chains not shown): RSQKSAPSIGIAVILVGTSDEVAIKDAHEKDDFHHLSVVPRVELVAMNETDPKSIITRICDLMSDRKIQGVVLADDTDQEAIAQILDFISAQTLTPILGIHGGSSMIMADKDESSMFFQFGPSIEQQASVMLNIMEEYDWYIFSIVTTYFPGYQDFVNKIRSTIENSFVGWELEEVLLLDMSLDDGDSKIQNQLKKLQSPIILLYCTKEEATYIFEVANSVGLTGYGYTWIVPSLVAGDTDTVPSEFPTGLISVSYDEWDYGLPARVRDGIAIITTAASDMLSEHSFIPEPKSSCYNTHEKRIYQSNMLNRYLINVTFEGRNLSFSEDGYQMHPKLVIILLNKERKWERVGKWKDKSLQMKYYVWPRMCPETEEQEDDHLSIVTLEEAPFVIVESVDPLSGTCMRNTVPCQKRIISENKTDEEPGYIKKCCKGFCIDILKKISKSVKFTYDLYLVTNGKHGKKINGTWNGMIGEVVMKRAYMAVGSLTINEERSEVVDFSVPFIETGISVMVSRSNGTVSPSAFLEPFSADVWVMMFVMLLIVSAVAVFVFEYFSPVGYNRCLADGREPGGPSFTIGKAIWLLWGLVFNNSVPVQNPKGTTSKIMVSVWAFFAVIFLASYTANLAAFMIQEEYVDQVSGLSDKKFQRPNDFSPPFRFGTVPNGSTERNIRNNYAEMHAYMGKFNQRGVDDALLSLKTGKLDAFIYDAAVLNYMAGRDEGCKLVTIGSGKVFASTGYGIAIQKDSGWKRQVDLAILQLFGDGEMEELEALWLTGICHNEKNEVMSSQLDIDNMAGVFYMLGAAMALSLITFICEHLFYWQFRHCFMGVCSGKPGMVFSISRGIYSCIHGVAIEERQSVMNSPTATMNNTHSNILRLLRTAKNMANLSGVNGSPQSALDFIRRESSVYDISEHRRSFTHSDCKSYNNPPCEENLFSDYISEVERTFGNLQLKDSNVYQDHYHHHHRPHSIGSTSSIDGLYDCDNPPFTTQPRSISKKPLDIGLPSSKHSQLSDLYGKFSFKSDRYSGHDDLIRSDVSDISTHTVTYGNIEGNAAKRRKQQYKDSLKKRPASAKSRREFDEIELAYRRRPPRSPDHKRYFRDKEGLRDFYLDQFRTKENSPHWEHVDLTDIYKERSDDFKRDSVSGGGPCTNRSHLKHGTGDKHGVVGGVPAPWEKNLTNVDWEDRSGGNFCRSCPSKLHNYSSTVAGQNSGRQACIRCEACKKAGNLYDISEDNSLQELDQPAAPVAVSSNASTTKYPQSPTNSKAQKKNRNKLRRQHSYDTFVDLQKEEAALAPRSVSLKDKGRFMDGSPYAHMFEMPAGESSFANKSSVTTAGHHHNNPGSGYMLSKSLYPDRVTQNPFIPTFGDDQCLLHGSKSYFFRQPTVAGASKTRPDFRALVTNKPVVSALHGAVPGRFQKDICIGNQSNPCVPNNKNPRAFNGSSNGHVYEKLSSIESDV

inhibition of GluN1-L135H/GluN2B: 13.546%
SMILES: c1ccc(/N=N/c2ccc(CCNc3ccncc3)cc2)cc1 [OptoNAM-3, (E)-N-(4-(Phenyldiazenyl)phenethyl)pyridin-4-amine]

Source: article PMC11413854, “Reversible Control of Native GluN2B-Containing NMDA Receptors with Visible Light” (ACS Chemical Neuroscience, 2024)
